One data set concerns the target acetylcholinesterase (Homo sapiens, UniProt P22303). Put plainly: biochemical. The note with it: apparent value; due to solubility issues the IC50 values can be far less; read-out: IC50, acetylcholinesterase inhibition. On the procedure: (§1) Azine derivatives, benzoxazepines and benzodiazepines show various biological activities, including antibacterial, antifungal, and anticholinesterase activities. This makes benzo-diazine an excellent candidate for exploration of its potential for cholinesterase inhibition and antimicrobial activities.
(§2) Antibacterial activity was assessed against clinically isolated, antibiotic-resistant strains of Salmonella typhi and Staphylococcus aureus using Disk diffusion assay, as previously described. Anticholinesterase activity was also performed, as described earlier for indoles.

For data set [1], the system named is antibiotic-resistant strains of Staphylococcus aureus. Put plainly: Disc diffusion assay, antibacterial activity. The note with it: clinically isolated antibiotic-resistant S. aureus. Format: cell-based. The method, then:
(§3) Disc diffusion assay was performed to evaluate the antibacterial potential of compounds (8, 9, 10 and 12) against antibiotic-resistant strains of Salmonella Typhi and Staphylococcus aureus. […] Heterocyclic compounds are well-known for their antibacterial potential. A series of Benzoxazepine derivatives have shown promising antibacterial activities against Staphylococcus sciuri (zone of inhibition as 8–21 mm) and E. coli (zone of inhibition as 8–14 mm). Isoxazolyl benzo [1, 4]diazepine-5-ones have shown antibacterial against both G + ve (B. subtilis, B. sphaericus, S.aureus) and G-ve bacteria (P. aeruginosa, K. aerogenes, C. violaceum).
as §2

In data set [2] the test system is antibiotic-resistant strains of Salmonella Typhi. Put plainly: Disc diffusion assay, antibacterial activity. Format: cell-based. The note with it: clinically isolated antibiotic-resistant S. Typhi. On the procedure: as §3, §2
Data set [3] in a line: Solubility behaviour in the anticholinesterase reaction mixture. Format: physicochemical. The note with it: anticholinesterase assay reaction mixture.
Excerpt: as §1

acetylcholinesterase, sequence (P22303 32-614): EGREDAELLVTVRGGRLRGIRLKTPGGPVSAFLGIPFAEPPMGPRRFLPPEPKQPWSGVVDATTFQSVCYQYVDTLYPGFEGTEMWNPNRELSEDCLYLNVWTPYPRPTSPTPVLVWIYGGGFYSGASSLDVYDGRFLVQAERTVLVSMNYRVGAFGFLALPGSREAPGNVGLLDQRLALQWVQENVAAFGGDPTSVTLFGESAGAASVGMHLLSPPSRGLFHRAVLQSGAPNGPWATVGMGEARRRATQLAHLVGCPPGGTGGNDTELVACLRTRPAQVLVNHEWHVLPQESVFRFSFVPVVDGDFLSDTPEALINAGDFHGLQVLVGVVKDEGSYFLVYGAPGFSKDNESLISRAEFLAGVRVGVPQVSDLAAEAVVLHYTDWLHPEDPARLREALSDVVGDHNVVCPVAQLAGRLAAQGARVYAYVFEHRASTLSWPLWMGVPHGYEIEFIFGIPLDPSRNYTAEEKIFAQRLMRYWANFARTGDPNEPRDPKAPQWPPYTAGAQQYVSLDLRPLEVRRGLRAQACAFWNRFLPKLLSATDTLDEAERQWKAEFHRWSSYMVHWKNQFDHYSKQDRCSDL

`COc1cc(OC)c2c(-c3ccccc3)c(-c3ccccc3)[nH]c2c1C(=O)C(Cl)(Cl)Cl` [Compound 8, 7-Trichloro-acetyl-4,6-Dimethoxy-2,3-Diphenyl-1H-Indole]: the IC50 at acetylcholinesterase is 7.31 µM. Also, the “zone of inhibition (ZOI)” value in data set [1] was ~ 18 mm.

As to `COC(=O)C(C)Oc1nc(-c2ccccc2)nc2c(C(=O)c3ccccc3)c(OC)cc(OC)c12` (stereo not drawn) [Compound 12, 8-Benzoyl-5,7-Dimethoxy-4-(1‴-Methyoxycarbonylethoxy)-2-Phenyl-1,3-Benzodiazine], the IC50 on acetylcholinesterase is 6.11 µM. The “zone of inhibition (ZOI)” value in data set [2] is ~ 13 mm; in data set [1], approximately 20 mm. In addition, the “precipitation in the reaction mixture” value in data set [3] was “precipitated even at lower concentrations”.

With `COc1cc(OC)c2c(-c3ccccc3)c(-c3ccccc3)[nH]c2c1C(=O)O` [Compound 9, 4,6-Dimethoxy-2,3-Diphenylindole-7-Carboxylic Acid], the “zone of inhibition (ZOI)” value in data set [1] was approximately 21 mm. For the same compound, the “precipitation in the reaction mixture” value in data set [3] was “precipitated even at lower concentrations”.

As to `COc1cc(OC)c2c(-c3ccccc3)c(-c3ccccc3)[nH]c2c1C(N)=O` [Compound 10, 4,6-Dimethoxy-2,3-Diphenyl-1H-Indole-7-Carboxamide], the “zone of inhibition (ZOI)” value in data set [1] is given as approximately 17 mm.

Values taken from article PMC10343724, “Evaluation of Antimicrobial, Anticholinesterase Potential of Indole Derivatives and Unexpectedly Synthesized Novel Benzodiazine: Characterization, DFT and Hirshfeld Charge Analysis” (Molecules, 2023).
